Source: patent US8686044B2, “Amide derivative, pest control agent containing the amide derivative, and use of the amide derivative” (Mitsui Chemicals Agro, Inc., priority 2008, dated 2014)

Columns and labels:
Type in all cases: in vivo
Spodoptera litura = assay: Pesticidal test against Spodoptera litura (cabbage leaf dip); conditions: foliar, 144 h, concentration 1 ppm, 2-stage larvae, examined after 6 days, 25° C., read-out: pesticidal rate
In short: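 Cabbage leaf pieces dipped 30 seconds in compound solution at a predetermined concentration and air-dried, then offered to second-stage larvae, five per group in two replicates. Held at 25° C. Living and dead larvae counted after 6 days.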

Plutella xylostella = assay: Pesticidal test against Plutella xylostella (cabbage leaf dip); conditions: foliar, 144 h, concentration 1 ppm, 2-stage larvae, examined after 6 days, 25° C., read-out: pesticidal rate
In short: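 Cabbage leaf pieces dipped 30 s in test solution at a predetermined concentration, air-dried, then offered to 2nd-instar larvae, five per group in duplicate. Held at 25° C; living and dead larvae counted after 6 days.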

Adoxophyes honmai = assay: Pesticidal test against Adoxophyes honmai (artificial feed dip); conditions: 144 h, 2-stage larvae, examined after 6 days, 25° C., read-out: pesticidal rate; for pest or weed control at 1 ppm: concentration 1 ppm; for pest or weed control at 10 ppm: concentration 10 ppm
In short: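 Thin artificial feed slices dipped 30 s in test solution at a predetermined concentration, air-dried, then offered to 2nd-stage larvae. Kept at 25° C; live and dead larvae counted after 6 days. Five larvae per group, two replicates.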

Choristoneura magnanima = assay: Pesticidal test against Choristoneura magnanima (artificial feed dip); conditions: 144 h, 2-stage larvae, examined after 6 days, 25° C., read-out: pesticidal rate; for pest or weed control at 10 ppm: concentration 10 ppm; for pest or weed control at 1 ppm: concentration 1 ppm
In short: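 Thin artificial feed slices dipped 30 s in compound solution at a set concentration, air-dried, then offered to 2nd-stage larvae held at 25° C. Living and dead larvae counted after 6 days; five larvae per group, two replicates.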

Helicoverpa armigera = assay: Pesticidal test against Helicoverpa armigera (cabbage leaf disk dip); conditions: foliar, 72 h, concentration 1 ppm, 2-stage larvae, examined after 3 days, 25° C., read-out: pesticidal rate
In short: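 Cabbage leaf disks were dipped for 30 s in test solution at a set concentration and air-dried. Second-instar larvae were placed one per hole and held at 25 °C, with live and dead counts taken after 3 days. Five larvae per group were tested in two replicates.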

Laodelphax striatellus = assay: Pesticidal test against Laodelphax striatellus (rice seedling spray); conditions: 144 h, concentration 100 ppm, 3-stage larvae, examined after 6 days, 25° C., read-out: pesticidal rate
In short: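 Rice seedlings sprayed with 2.5 ml acetone solution of compound at a predetermined concentration, air-dried, then infested with third-stage Laodelphax striatellus larvae in capped water-containing tubes at 25 °C. Living and dead insects counted after 6 days; ten larvae per group, two replicates.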

Musca domestica = assay: Pesticidal test against Musca domestica (petri dish dry film); conditions: 24 h, concentration 100 ppm, female adults, examined after 1 day, 25° C., read-out: pesticidal rate
In short: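 Dry film from 1 ml acetone solution of compound at a predetermined concentration, air-dried in a 9 cm petri dish; female adult flies released and dish capped. Held at 25° C; living and dead counted after 1 day. Five insects per group, two replicates.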

Coptotermes formosanus = assay: Pesticidal test against Coptotermes formosanus (treated filter paper); conditions: 120 h, concentration 30 ppm, examined after 5 days of treatment, 28° C., read-out: pesticidal rate
Method: Pesticidal Test against Coptotermes formosanus
20 μl of an acetone solution in which a test compound had been prepared at a predetermined concentration was added dropwise to the filter paper having a diameter of […] included in a polypropylene cup, and air-dried, and then 20 μl of water was added thereto. Coptotermes formosanus was released and the cup was capped. They were left to stand in a thermostatic chamber at 28° C., and the numbers of the living pests and the dead pests were examined after 5 days of treatment. The test was carried out with ten larvae per group in two replicates.

Blattella germanica = assay: Pesticidal test against Blattella germanica (petri dish dry film); conditions: 24 h, concentration 100 ppm, female adults, examined after 1 day, 25° C., read-out: pesticidal rate
In short: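 Acetone solution of test compound at a predetermined concentration dried as a film in a 9 cm petri dish; female adult cockroaches released onto it and kept at 25° C. Living and dead counted after 1 day; five insects per group, two replicates.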

Rhipicephalus sanguineus = assay: Insecticidal test for Rhipicephalus sanguineus (treated glass petri dish, Table A6); conditions: adults of Rhipicephalus sanguineus, 18 hour exposure, examined after 48 hours, in single
Method: Insecticidal Test for Rhipicephalus sanguineus
0.5 ml of a solution of acetone, the active ingredient, prepared to the prescribed dose was added dropwise into a glass petri dish with a diameter of 10 cm, and the acetone was evaporated at room temperature. About 10 adults of Rhipicephalus sanguineus per dish were added, and the dish was covered by another glass petri dish that was treated with the active ingredient in the same manner described above. After 18 hour exposure to the test substance, the adults were transferred into a glass petri dish that was not treated with the active ingredient. After 48 hours of the exposure, the conditions of the adults were examined and classified into “alive” and “dead (including a moribund condition)” to determine the death rate (in single).
As the comparative compounds, said Compounds (B), (C), and (D), and the following Compound (F) disclosed in WO2009/080203, and fipronil were used.

SMILES	pest or weed control at 1 ppm (Spodoptera litura)	pest or weed control at 1 ppm (Plutella xylostella)	pest or weed control at 1 ppm (Adoxophyes honmai)	pest or weed control at 10 ppm (Choristoneura magnanima)	pest or weed control at 1 ppm (Helicoverpa armigera)	pest or weed control at 100 ppm (Laodelphax striatellus)	pest or weed control at 100 ppm (Musca domestica)	pest or weed control at 30 ppm (Coptotermes formosanus)	pest or weed control at 1 ppm (Choristoneura magnanima)	pest or weed control at 100 ppm (Blattella germanica)	pest or weed control at 10 ppm (Adoxophyes honmai)	death rate (Rhipicephalus sanguineus; 0.673 mg/m^2)	death rate (Rhipicephalus sanguineus; 2.69 mg/m^2)	death rate (Rhipicephalus sanguineus; 10.8 mg/m^2)
O=C(Nc1c(I)cc(C(F)(C(F)(F)F)C(F)(F)F)cc1C(F)(F)F)c1cccc(NC(=O)c2cccnc2Cl)c1 [6-460, 2-chloro-N-(3-(2-iodo-4-(perfluoropropan-2-yl)-6-(trifluoromethyl)phenylcarbamoyl)phenyl)nicotinamide]	≥ 70%	≥ 70%	≥ 70%	≥ 70%	≥ 70%	≥ 70%	≥ 70%	≥ 70%	–	–	–	–	–	–
O=C(Nc1cccc(C(=O)Nc2c(I)cc(C(F)(C(F)(F)F)C(F)(F)F)cc2I)c1F)c1ccccc1 [6-1260, 3-benzamide-N-(2,6-diiodo-4-(perfluoropropan-2-yl)phenyl)-2-fluorobenzamide]	≥ 70%	≥ 70%	≥ 70%	–	≥ 70%	≥ 70%	≥ 70%	≥ 70%	≥ 70%	–	–	–	–	–
O=C(Nc1cccc(C(=O)Nc2c(Br)cc(C(F)(C(F)(F)F)C(F)(F)C(F)(F)F)cc2C(F)(F)F)c1F)c1ccccc1 (centres unmarked) [6-1652]	≥ 70%	≥ 70%	≥ 70%	–	≥ 70%	≥ 70%	≥ 70%	≥ 70%	≥ 70%	–	–	–	–	–
CN(C(=O)c1ccccc1)c1cccc(C(=O)Nc2c(Br)cc(C(F)(C(F)(F)F)C(F)(F)F)cc2C(F)(F)F)c1 [7-268]	≥ 70%	≥ 70%	–	–	–	≥ 70%	≥ 70%	≥ 70%	–	≥ 70%	–	–	–	–
CN(C(=O)c1ccccc1)c1cccc(C(=O)Nc2c(I)cc(C(F)(C(F)(F)F)C(F)(F)F)cc2C(F)(F)F)c1 [7-424]	≥ 70%	≥ 70%	–	≥ 70%	≥ 70%	≥ 70%	≥ 70%	≥ 70%	–	≥ 70%	≥ 70%	–	–	–
CN(C(=O)c1cccnc1Cl)c1cccc(C(=O)Nc2c(I)cc(C(F)(C(F)(F)F)C(F)(F)C(F)(F)F)cc2C(F)(F)F)c1 (centres unmarked) [7-538]	≥ 70%	≥ 70%	≥ 70%	≥ 70%	≥ 70%	≥ 70%	≥ 70%	–	–	≥ 70%	–	–	–	–
CN(C(=O)c1cccc(F)c1)c1cccc(C(=O)Nc2c(Br)cc(C(F)(C(F)(F)F)C(F)(F)F)cc2Br)c1F [7-1106]	≥ 70%	≥ 70%	≥ 70%	–	≥ 70%	≥ 70%	≥ 70%	–	≥ 70%	≥ 70%	–	–	–	–
CN(C(=O)c1cccc(F)c1)c1cccc(C(=O)Nc2c(I)cc(C(F)(C(F)(F)F)C(F)(F)F)cc2I)c1F [7-1262]	≥ 70%	≥ 70%	≥ 70%	–	≥ 70%	≥ 70%	≥ 70%	–	≥ 70%	≥ 70%	–	–	–	–
CN(C(=O)c1cccc(C#N)c1)c1cccc(C(=O)Nc2c(I)cc(C(F)(C(F)(F)F)C(F)(F)F)cc2I)c1F [7-1280]	≥ 70%	≥ 70%	≥ 70%	–	≥ 70%	≥ 70%	≥ 70%	–	≥ 70%	≥ 70%	–	–	–	–
CN(C(=O)c1ccc(Cl)nc1)c1cccc(C(=O)Nc2c(I)cc(C(F)(C(F)(F)F)C(F)(F)F)cc2I)c1F [7-1303]	≥ 70%	≥ 70%	≥ 70%	–	≥ 70%	≥ 70%	≥ 70%	–	≥ 70%	≥ 70%	–	–	–	–
CN(C(=O)c1cccc(F)c1)c1cccc(C(=O)Nc2c(Br)cc(C(F)(C(F)(F)F)C(F)(F)F)cc2C(F)(F)F)c1F [7-1576]	≥ 70%	≥ 70%	≥ 70%	–	≥ 70%	≥ 70%	≥ 70%	–	≥ 70%	≥ 70%	–	–	–	–
CN(C(=O)c1ccc(F)cc1)c1cccc(C(=O)Nc2c(Br)cc(C(F)(C(F)(F)F)C(F)(F)F)cc2C(F)(F)F)c1F [7-1577]	≥ 70%	≥ 70%	–	–	≥ 70%	≥ 70%	≥ 70%	≥ 70%	≥ 70%	≥ 70%	≥ 70%	–	–	–
CN(C(=O)c1ccccc1)c1cccc(C(=O)Nc2c(I)cc(C(F)(C(F)(F)F)C(F)(F)F)cc2C(F)(F)F)c1F [7-1730]	≥ 70%	≥ 70%	≥ 70%	–	≥ 70%	≥ 70%	≥ 70%	≥ 70%	≥ 70%	–	–	–	–	–
CN(C(=O)c1cccc(C#N)c1)c1cccc(C(=O)Nc2c(I)cc(C(F)(C(F)(F)F)C(F)(F)F)cc2C(F)(F)F)c1F [7-1750]	≥ 70%	≥ 70%	≥ 70%	–	≥ 70%	≥ 70%	≥ 70%	–	≥ 70%	≥ 70%	–	–	–	–
CN(C(=O)c1ccc(Cl)nc1)c1cccc(C(=O)Nc2c(I)cc(C(F)(C(F)(F)F)C(F)(F)F)cc2C(F)(F)F)c1F [7-1773]	≥ 70%	≥ 70%	–	–	≥ 70%	≥ 70%	≥ 70%	–	≥ 70%	≥ 70%	≥ 70%	–	–	–
CN(C(=O)c1ccc(Cl)nc1)c1cccc(C(=O)Nc2c(I)cc(C(F)(C(F)(F)F)C(F)(F)C(F)(F)F)cc2C(F)(F)F)c1F (centres unmarked) [7-1851]	≥ 70%	≥ 70%	–	–	≥ 70%	≥ 70%	≥ 70%	–	≥ 70%	≥ 70%	≥ 70%	–	–	–
CCc1cc(C(F)(C(F)(F)F)C(F)(F)F)cc(C)c1NC(=O)c1cccc(NC(=O)C2CC2)c1 [compound (F)]	–	–	–	–	–	–	–	–	–	–	–	0.0%	0.0%	0.0%
